Test results taken from ChEMBL document CHEMBL1128879, “Design, synthesis, and structure-activity relationships of 2-substituted-2-amino-1,3-propanediols: Discovery of a novel immunosuppressant, FTY720” (Bioorg Med Chem Lett, 1995).

Assays:
Mus musculus = species: Mus musculus; experiment: In vitro ability to inhibit mouse allogenic mixed leukocyte response (MLR); format: functional
Rattus norvegicus [1] = experiment: (§1) Compound was evaluated in vivo in rat skin allograft by intravenous (iv) administration; toxic; format: organism-based
Rattus norvegicus [2] = experiment: as §1; format: functional
Rattus norvegicus [3] = experiment: Compound was evaluated in vivo for the immunosuppressive activity following intraperitoneal (ip) administration at a dose of 3 mg/Kg; format: functional
Rattus norvegicus [4] = experiment: Compound was evaluated in vivo for the immunosuppressive activity following intraperitoneal (ip) administration at a dose of 0.3 mg/Kg; format: functional
Rattus norvegicus [5] = experiment: Compound was evaluated in vivo for the immunosuppressive activity following intraperitoneal (ip) administration at a dose of 0.1 mg/Kg; format: functional
Rattus norvegicus [6] = experiment: Compound was evaluated in vivo for the immunosuppressive activity following intraperitoneal (ip) administration at a dose of 1 mg/Kg; format: functional
Rattus norvegicus [7] = experiment: Compound was evaluated in vivo for the immunosuppressive activity following intravenous (iv) administration at a dose of 3 mg/Kg; format: functional
Rattus norvegicus [8] = experiment: Compound was evaluated in vivo in rat skin allograft by intravenous (iv) administration; not toxic; format: functional
Rattus norvegicus [9] = experiment: Compound was evaluated in vivo for the immunosuppressive activity following peroral (po) administration at a dose of 3 mg/Kg; format: functional
Rattus norvegicus [10] = experiment: Compound was evaluated in vivo for the immunosuppressive activity following intravenous (iv) administration at a dose of 0.1 mg/kg; format: functional
Rattus norvegicus [11] = experiment: Compound was evaluated in vivo for the immunosuppressive activity following intravenous (iv) administration at a dose of 10 mg/Kg; format: functional
Rattus norvegicus [12] = experiment: Compound was evaluated in vivo for the immunosuppressive activity following intraperitoneal (ip) administration at a dose of 3 mg/kg; format: functional
Rattus norvegicus [13] = experiment: Compound was evaluated in vivo for the immunosuppressive activity following peroral (po) administration at a dose of 0.1 mg/Kg; format: functional
Rattus norvegicus [14] = experiment: Compound was evaluated in vivo for the immunosuppressive activity following peroral (po) administration at a dose of 30 mg/Kg; format: functional

`NC(CO)(CO)CCCCCCCCCCc1ccccc1` was tested, and the IC50 (Mus musculus) was 54 nM.

Work on `CCCCCCCCCCCCCCCC(N)(CO)CO` yielded a Dose (Rattus norvegicus [1]) of 3 mg/kg.

Work on `CCCCc1ccc(CCCCCCC(N)(CO)CO)cc1` yielded an IC50 (Mus musculus) of 100 nM.

In the case of `CCCCCCCc1ccc(CCCC(N)(CO)CO)cc1`, the IC50 (Mus musculus) is reported as 350 nM.

`CCCCCCCCCCc1ccc(C(N)(CO)CO)cc1` gave an IC50 (Mus musculus) of 13 nM.

`CCCCCCc1ccc(CCCCC(N)(CO)CO)cc1` showed an IC50 (Mus musculus) of 19 nM.

In the case of `CCc1ccc(CCCCCCCCC(N)(CO)CO)cc1`, the IC50 (Mus musculus) is reported as 32 nM.

`CCCCCCCCCCCCCCC(N)(CO)CO` was tested, and the Dose (Rattus norvegicus [2]) was 10 mg/kg, the MST (Rattus norvegicus [3]) was 45 days and the MST (Rattus norvegicus [4]) was 28 days. The MST (Rattus norvegicus [5]) was 12 days and the MST (Rattus norvegicus [6]) was 40 days.

`CCCCCCCCc1ccc(CCC(N)(CO)CO)cc1` [FINGOLIMOD] showed an MST (Rattus norvegicus [7]) of 46.3 days, an MST (Rattus norvegicus [4]) of 36 days and an MST (Rattus norvegicus [5]) of 32 days. For the same molecule, the Dose (Rattus norvegicus [8]) was 10 mg/kg, the MST (Rattus norvegicus [9]) was 41 days and the MST (Rattus norvegicus [10]) was 24.8 days. For the same molecule, the MST (Rattus norvegicus [11]) was 53.5 days, the MST (Rattus norvegicus [6]) was 45 days and the MST (Rattus norvegicus [12]) was 60 days. It also gave an MST (Rattus norvegicus [13]) of 19.3 days and an MST (Rattus norvegicus [14]) of 57.8 days.

`CCCCCCCCCc1ccc(CC(N)(CO)CO)cc1` showed an IC50 (Mus musculus) of 70 nM.

`CCCCCCCCCc1ccc(CCC(N)(CO)CO)cc1` gave an IC50 (Mus musculus) of 8.5 nM.
